Reference: patent US7943646B2, “Benzamidine derivative, process for the preparation thereof and pharmaceutical composition comprising same” (Dong Wha Pharmaceutical Co., Ltd., priority 2006, dated 2011)

System: osteoclast differentiation
Experiment: Inhibitory effect on osteoclast differentiation, co-culture of bone marrow cells and osteoblast, TRAP staining
Type: cell-based, mouse
Details: Mus musculus, Osteoclast, 168 h, read-out: inhibitory effect on osteoclast differentiation(%)
Protocol: The effect of the benzamidine derivative of the present invention on osteoclast formation and differentiation process was evaluated via co-culture with an osteoblast.
Tibia was aseptically ectomized from male 6 to 8-week-old ddY mice to harvest bone marrow cells by using a syringe (21G, Korea Green Cross). The bone marrow cells were suspended in 5 mL of an α-MEM medium (Gibco BRL Co., added with sodium bicarbonate (2.0 g/L), streptomycin (100 mg/L) and penicillin ([…]), filtered and then sterilized). The harvested cells were centrifuged at 600×g for 5 mins to collect the whole quantity. To remove the red blood cells in the bone marrow cells, 3 mL of Tris HCl (0.83% NH4Cl, pH 7.5) was added and well mixed. After centrifuging above cells, the numbers of the eukaryotic cells in the harvested bone marrow cells were counted and then immediately used for a co-culture system.
The progenitor bone and the parietal bone were aseptically ectomized from 1 to 2-day-old neonate ICR mice, washed with a phosphate butter solution (PBS) and treated with a mixed enzyme solution (of 0.2% collagenase and 0.1% dispase) sequentially (10, 10, 10, 20, 20 and 20 min), and then 3 to 6 groups of the cells which comprise lot of cells having the characteristics of the osteoblast were intensively collected and washed with a medium (a serum-free α-MEM). The washed cells were cultured in the α-MEM medium containing 10% FBS for 2 to 3 days. After subculturing, the collected cells were used for this experiment, and diluted to a concentration of 1×10^6 cells/mL for storage at −70[…].
The benzamidine derivative of the present invention was dissolved in a sterile distilled water or ethanol to dilute to a desired concentration. The final volume of the sample added to the cell culture medium was set at a ratio of 1:1000.
The bone marrow cells prepared in the above 1-1 and the osteoblast were co-cultured for osteoclast differentiation. Both the bone marrow cells (25,000 cells/cm^2) and the osteoblast (10,000 cells/cm^2) were plated in a 96-well plate using α-MEM medium containing FBS, and then cultured with the samples to be tested for 7 days. Differentiation factors, such as dexamethasone (10^−7 M) and vitamin D3 (10^−8 M), were also co-added to the medium from the first day of cultivation. The medium was changed with a fresh media containing a mixture of the samples and the differentiation factors every 2 to 3 days.
TRAP was used as a marker to measure the matured osteoclast in consideration of its characteristics showing a positive reaction to a TRAP staining solution. The TRAP staining solution was prepared in such the manner that 5 mg of naphtol AS-MS phosphate (sigma N-4875) as a substrate, and 25 mg of a coloring agent (Fast Red Violet LB salt) were dissolved in N,N-dimethylformamide (about 0.5 mL). 50 ml of a 0.1 N NaHCO3 buffer solution containing 50 mM tartaric acid (pH 5.0) was added thereto, and the mixture was stored at a refrigerator prior to use as a staining solution.
After culturing the cells for 7 days, the medium was removed from the wells, the cells were once washed with PBS, and then fixed with PBS containing 10% formalin for 2 to 5 min. The cells were fixed again in a mixed solution of ethanol and acetone (1/1) for about 1 min, and dried off. The cells were further treated by the TRAP staining solution for 15 mins and washed with water and dried off. The osteoclasts with 3 or more nuclei showing a TRAP-positive reaction were counted under a microscopic examination. Each of tests was confirmed over at least three times. The inhibitory effect on osteoclast differentiation of each experimental group, relative to negative controls, was expressed as a percentage (%).

Point of comparison: CC(C)c1nc(-c2ccc(OCCCCCOc3ccc(C(=N)NO)cc3)cc2)c(CCNCCCn2ccnc2)s1 [Example 31, N-hydroxy-4-[5-(4-{5-[2-(3-imidazol-1-yl-propylamino)-ethyl]-2-isopropyl-thiazol-4-yl}-phenoxy)-pentyloxy]-benzamidine], inhibition at 1 µM 97%. Against it:
- Cc1nc(-c2ccc(OCCCCCOc3ccc(C(=N)NO)cc3)cc2)c(CCNCCN2CCOCC2)s1 [Example 4, N-hydroxy-4-[5-(4-{2-methyl-5-[2-(2-morpholin-4-yl-ethylamino)-ethyl]-thiazol-4-yl}-phenoxy)-pentyloxy]-benzamidine] — lower, 72.8%
- Cc1nc(-c2ccc(OCCCCCOc3ccc(C(=N)NO)cc3)cc2)c(CCNC(C)C)s1 [Example 6, N-hydroxy-4-(5-{4-[5-(2-isopropylamino-ethyl)-2-methyl-thiazol-4-yl]-phenoxy}-pentyloxy)-benzamidine] — lower, 59%
- Cc1nc(-c2ccc(OCCCCCOc3ccc(C(=N)NO)cc3)cc2)c(CCn2ccnc2)s1 [Example 9, N-hydroxy-4-(5-{4-[5-(2-imidazol-1-yl-ethyl)-2-methyl-thiazol-4-yl]-phenoxy}-pentyloxy)-benzamidine] — lower, 91.7%
- CCN(CC)CCc1sc(C)nc1-c1ccc(OCCCCCOc2ccc(C(=N)NO)cc2)cc1 [Example 11, N-hydroxy-4-(5-{4-[5-(2-diethylamino-ethyl)-2-methyl-thiazol-4-yl]-phenoxy}-pentyloxy)-benzamidine] — lower, 70%
- Cc1nc(-c2ccc(OCCCCCOc3ccc(C(=N)NO)cc3)cc2)c(CCN(CCO)CCO)s1 [Example 12, N-hydroxy-4-{5-[4-(5-{2-[bis-(2-hydroxy-ethyl)-amino]-ethyl)-2-methyl-thiazol-4-yl)-phenoxy]-pentyloxy}-benzamidine] — lower, 56%
- Cc1nc(-c2ccc(OCCCCCOc3ccc(C(=N)NO)cc3)cc2)c(CCN2CC(C)OC(C)C2)s1 (stereo not shown) [Example 14, N-hydroxy-4-[5-(4-{5-[2-(2,6-dimethyl-morpholin-4-yl)-ethyl]-2-methyl-thiazol-4-yl}-phenoxy)-pentyloxy]-benzamidine] — higher, 100%
- N=C(NO)c1ccc(OCCCCCOc2ccc(-c3nc(N)sc3CCN3CCOCC3)cc2)cc1 [Example 16, N-hydroxy-4-(5-{4-[2-amino-5-(2-morpholin-4-yl-ethyl)-thiazol-4-yl]-phenoxy}-pentyloxy)-benzamidine] — lower, 51%
- Cc1nc(-c2ccc(OCCCCCOc3ccc(C(=N)NO)cc3)cc2)c(CCNCCN(C)C)s1 [Example 17, N-hydroxy-4-[5-(4-{5-[2-(2-dimethylamino-ethylamino)-ethyl]-2-methyl-thiazol-4-yl}-phenoxy)-pentyloxy]-benzamidine] — lower, 40%
- COCCN(CCOC)CCc1sc(C)nc1-c1ccc(OCCCCCOc2ccc(C(=N)NO)cc2)cc1 [Example 20, N-hydroxy-4-{5-[4-(5-{2-[bis-(2-methoxy-ethyl)-amino]-ethyl}-2-methyl-thiazol-4-yl)-phenoxy]-pentyloxy}-benzamidine] — lower, 94%
- CN1CCN(CCc2sc(-c3cccnc3)nc2-c2ccc(OCCCCCOc3ccc(C(=N)NO)cc3)cc2)CC1 [Example 24, N-hydroxy-4-[5-(4-{5-[2-(4-methyl-piperazin-1-yl)-ethyl]-2-pyridine-3-yl-thiazol-4-yl}-phenoxy)-pentyloxy]-benzamidine] — lower, 86%
- N=C(NO)c1ccc(OCCCCCOc2ccc(-c3nc(-c4cccnc4)sc3CCN3CCSCC3)cc2)cc1 [Example 25, N-hydroxy-4-(5-{4-[2-pyridine-3-yl-5-(2-thiomorpholin-4-yl-ethyl)-thiazol-4-yl]-phenoxy}-pentyloxy)-benzamidine] — lower, 65%
- N=C(NO)c1ccc(OCCCCCOc2ccc(-c3nc(-c4cccnc4)sc3CCn3ccnc3)cc2)cc1 [Example 26, N-hydroxy-4-(5-{4-[5-(2-imidazol-1-yl-ethyl)-2-pyridine-3-yl-thiazol-4-yl]-phenoxy}-pentyloxy)-benzamidine] — lower, 24%
- CC(C)c1nc(-c2ccc(OCCCCCOc3ccc(C(=N)NO)cc3)cc2)c(CCn2ccnc2)s1 [Example 29, N-hydroxy-4-(5-{4-[5-(2-imidazol-1-yl-ethyl)-2-isopropyl-thiazol-4-yl]-phenoxy}-pentyloxy)-benzamidine] — lower, 85%

Same assay, conditions: Mus musculus, Osteoclast, 168 h; 1 μm; 7 days co-culture; TRAP-positive osteoclasts with 3 or more nuclei, relative to negative controls; read-out: inhibitory effect on osteoclast differentiation(%)

Point of comparison: Cc1nc(-c2ccc(OCCCCCOc3ccc(C(=N)NO)cc3)cc2)c(CCNCCCn2ccnc2)s1 [Example 5, N-hydroxy-4-[5-(4-{5-[2-(3-imidazol-1-yl-propylamino)-ethyl]-2-methyl-thiazol-4-yl}-phenoxy)-pentyloxy]-benzamidine], inhibition at 1 µM 93.5%. Against it:
- Cc1nc(-c2ccc(OCCCCCOc3ccc(C(=N)NO)cc3)cc2)c(CCN2CCCCC2)s1 [Example 3, N-hydroxy-4-(5-{4-[2-methyl-5-(2-piperidin-1-yl-ethyl)-thiazol-4-yl]-phenoxy}-pentyloxy)-benzamidine] — lower, 90.7%
- Cc1nc(-c2ccc(OCCCCCOc3ccc(C(=N)NO)cc3)cc2)c(CCNCCCOC(C)C)s1 [Example 7, N-hydroxy-4-[5-(4-{5-[2-(3-isopropoxy-propylamino)-ethyl]-2-methyl-thiazol-4-yl}-phenoxy)-pentyloxy]-benzamidine] — lower, 48%
- Cc1nc(-c2ccc(OCCCCCOc3ccc(C(=N)NO)cc3)cc2)c(CCNC2CCCCC2)s1 [Example 10, N-hydroxy-4-(5-{4-[5-(2-cyclohexylamino-ethyl)-2-methyl-thiazol-4-yl]-phenoxy}-pentyloxy)-benzamidine] — lower, 55%
- Cc1nc(-c2ccc(OCCCCCOc3ccc(C(=N)NO)cc3)cc2)c(CCN(C(C)C)C(C)C)s1 [Example 13, N-hydroxy-4-(5-{4-[5-(2-diisopropylamino-ethyl)-2-methyl-thiazol-4-yl]-phenoxy}-pentyloxy)-benzamidine] — lower, 43%
- Cc1nc(-c2ccc(OCCCCCOc3ccc(C(=N)NO)cc3)cc2)c(CCN2CCSCC2)s1 [Example 15, N-hydroxy-4-(5-{4-[2-methyl-5-(2-thiomorpholin-4-yl-ethyl)-thiazol-4-yl]-phenoxy}-pentyloxy)-benzamidine] — higher, 99%
- Cc1nc(-c2ccc(OCCCCCOc3ccc(C(=N)NO)cc3)cc2)c(CCNC(C)(C)C)s1 [Example 21, N-hydroxy-4-(5-{4-[5-(2-tert-butylamino-ethyl)-2-methyl-thiazol-4-yl]-phenoxy}-pentyloxy)-benzamidine] — lower, 58%
- Cc1nc(-c2ccc(OCCCCCOc3ccc(C(=N)NO)cc3)cc2)c(CCNCC(C)C)s1 [Example 22, N-hydroxy-4-(5-{4-[5-(2-isobutylamino-ethyl)-2-methyl-thiazol-4-yl]-phenoxy}-pentyloxy)-benzamidine] — lower, 61%
- N=C(NO)c1ccc(OCCCCCOc2ccc(-c3nc(-c4cccnc4)sc3CCN3CCOCC3)cc2)cc1 [Example 23, N-hydroxy-4-(5-{4-[5-(2-morpholin-4-yl-ethyl)-2-pyridine-3-yl-thiazol-4-yl]-phenoxy}-pentyloxy)-benzamidine] — lower, 91%
- CC(C)c1nc(-c2ccc(OCCCCCOc3ccc(C(=N)NO)cc3)cc2)c(CCN2CCN(C)CC2)s1 [Example 28, N-hydroxy-4-[5-(4-{2-isopropyl-5-[2-(4-methyl-piperazin-1-yl)-ethyl]-thiazol-4-yl}-phenoxy)-pentyloxy]-benzamidine] — lower, 90%
- CC(C)c1nc(-c2ccc(OCCCCCOc3ccc(C(=N)NO)cc3)cc2)c(CCNCCN2CCOCC2)s1 [Example 30, N-hydroxy-4-[5-(4-{2-isopropyl-5-[2-(2-morpholin-4-yl-ethylamino)-ethyl]-thiazol-4-yl}-phenoxy)-pentyloxy]-benzamidine] — lower, 78%
